Measured values reported in patent US8512709B2, “Modified amyloid β peptide” (The Chemo-Sero-Therapeutic Research Institue, priority 2008, dated 2013).

Test system: Aβ peptide (1-40 amino acid sequence)
Assay: Anti-Aβ IgG antibody titer of murine serum after immunization with Aβ peptides (ELISA on immobilized Aβ 1-40)
Format: in vivo, C57BL/6 mice
Conditions: for Antibody titer Animal No. 1 / Antibody titer Animal No. 2 / Antibody titer Animal No. 3 / Antibody titer Animal No. 4: C57BL/6 mouse serum, Day 7 from final 3rd immunization; for Antibody titer Animal No. 1 / Antibody titer Animal No. 2 / Antibody titer Animal No. 3 / Antibody titer Animal No. 4 / Antibody titer Mean: 100 μg/mouse; for Antibody titer Mean: mean of 4 mice, serum Day 7 from final 3rd immunization
[1] = Example 4, result in words on Table 4
[2] = Example 1, result in words on Table 1

## DAEFRHDSGYKGAIIGLC [1-10•28-34AACys, 1-10+28-34-amino acid Aβ peptide with addition of Cysteine]
Example 2
  Antibody titer Animal No. 1: 29 ng/mL
  Antibody titer Animal No. 2: 30 ng/mL
  Antibody titer Animal No. 3: 26 ng/mL
  Antibody titer Animal No. 4: 25 ng/mL
  Antibody titer Mean: 27.4 ng/mL

## DAEFRHDSGYEVHHQKLVCFFAEDVGSNK [1-18Cys19-28AA, 28-amino acid Aβ peptide wherein cysteine is inserted between residues Nos. 18 and 19]
Example 6
  Antibody titer Animal No. 1: 448154 ng/mL
  Antibody titer Animal No. 2: 97146 ng/mL
  Antibody titer Animal No. 3: 233411 ng/mL
  Antibody titer Animal No. 4: 57794 ng/mL
  Antibody titer Mean: 209126.3 ng/mL

## DAEFRHDSGKGAIIGLMVGC [1-9•28-37AACys, 1-9+28-37-amino acid Aβ peptide with addition of Cysteine]
Example 3
  Antibody titer Animal No. 1: 398 ng/mL
  Antibody titer Animal No. 2: 249 ng/mL
  Antibody titer Animal No. 3: 2772 ng/mL
  Antibody titer Animal No. 4: 8899 ng/mL
  Antibody titer Mean: 3079.5 ng/mL
Example 3, result in words on Table 3
  induction of an antibody to Aβ: observed

## AEFRHDSGKGAIIGLMVGC (added cysteine) [2-9•28-37AACys, 2-9+28-37-amino acid Aβ peptide with addition of Cysteine]
Example 4
  Antibody titer Animal No. 1: 7038 ng/mL
  Antibody titer Animal No. 2: 29489 ng/mL
  Antibody titer Animal No. 3: 16 ng/mL
  Antibody titer Animal No. 4: 17 ng/mL
  Antibody titer Mean: 9139.9 ng/mL
[1]
  induction of an antibody to Aβ: observed

## DAEFRHDSGYEVHHQKLVKGAIIGLMVGGVVIAC [1-18•28-42AACys, 1-18+28-42-amino acid Aβ peptide with addition of Cysteine]
Example 5
  Antibody titer Animal No. 1: 69336 ng/mL
  Antibody titer Animal No. 2: 41211 ng/mL
  Antibody titer Animal No. 3: 51611 ng/mL
  Antibody titer Animal No. 4: 7004 ng/mL
  Antibody titer Mean: 42290.5 ng/mL

## DAEFRHDSGYEVHHQKLVCFFAEDVGSN [1-18Cys19-27AA, 27-amino acid Aβ peptide wherein cysteine is inserted between residues Nos. 18 and 19]
Example 7
  Antibody titer Animal No. 1: 2482 ng/mL
  Antibody titer Animal No. 2: 3125 ng/mL
  Antibody titer Animal No. 3: 2631 ng/mL
  Antibody titer Animal No. 4: 17.2 ng/mL
  Antibody titer Mean: 2063.8 ng/mL
Example 7, result in words on Table 7
  induction of an antibody to Aβ: observed

## DAEFRHDSKGAIIGLMVGC [1-8•28-37AACys, 1-8+28-37-amino acid Aβ peptide with addition of Cysteine]
Example 3
  Antibody titer Animal No. 1: 16 ng/mL
  Antibody titer Animal No. 2: 16 ng/mL
  Antibody titer Animal No. 3: 43 ng/mL
  Antibody titer Animal No. 4: 31 ng/mL
  Antibody titer Mean: 26.4 ng/mL

## DAEFRHDSGYKGAIIGLMVGGVVIAC [1-10•28-42AACys, 1-10+28-42-amino acid Aβ peptide with addition of Cysteine]
Example 1
  antibody titer against Aβ as compared to the peptide without addition of cysteine (1-10·28-42AA): higher antibody titer
  Antibody titer Animal No. 1: 46266 ng/mL
  Antibody titer Animal No. 2: 19854 ng/mL
  Antibody titer Animal No. 3: 40681 ng/mL
  Antibody titer Animal No. 4: 33 ng/mL
  Antibody titer Mean: 26708.6 ng/mL
[2]
  induction of an antibody to Aβ: observed
Example 2
  Antibody titer Animal No. 1: 32 ng/mL
  Antibody titer Animal No. 2: 30482 ng/mL
  Antibody titer Animal No. 3: 33623 ng/mL
  Antibody titer Animal No. 4: 2072 ng/mL
  Antibody titer Mean: 16552.3 ng/mL
Example 2, result in words on Table 2
  induction of an antibody to Aβ: observed
Example 5
  Antibody titer Animal No. 1: 886.2 ng/mL
  Antibody titer Animal No. 2: 463379 ng/mL
  Antibody titer Animal No. 3: 414.8 ng/mL
  Antibody titer Animal No. 4: 3314 ng/mL
  Antibody titer Mean: 116998.5 ng/mL

## AEFRHDSGYKGAIIGLMVGC [2-10•28-37AACys, 2-10+28-37-amino acid Aβ peptide with addition of Cysteine]
Example 4
  Antibody titer Animal No. 1: 72890 ng/mL
  Antibody titer Animal No. 2: 57573 ng/mL
  Antibody titer Animal No. 3: 6094 ng/mL
  Antibody titer Animal No. 4: 42593 ng/mL
  Antibody titer Mean: 44787.5 ng/mL
[1]
  induction of an antibody to Aβ: observed

## DAEFRHDSGYKGAIIGLMVGGVVIA [1-10•28-42AA, 1-10+28-42-amino acid Aβ peptide, without addition of cysteine, reference compound]
Example 1
  Antibody titer Animal No. 1: 66 ng/mL
  Antibody titer Animal No. 2: 715 ng/mL
  Antibody titer Animal No. 3: 3559 ng/mL
  Antibody titer Animal No. 4: 13 ng/mL
  Antibody titer Mean: 1088.5 ng/mL
[2]
  induction of an antibody to Aβ: observed

## DAEFRHDKGAIIGLMVGC [1-7•28-37AACys, 1-7+28-37-amino acid Aβ peptide with addition of Cysteine]
Example 3
  Antibody titer Animal No. 1: 26 ng/mL
  Antibody titer Animal No. 2: 27 ng/mL
  Antibody titer Animal No. 3: 34 ng/mL
  Antibody titer Animal No. 4: 15 ng/mL
  Antibody titer Mean: 25.6 ng/mL
